From PubChem BioAssay (NCI)
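Interpolation was linear, between the two tested concentrations surrounding the appropriate level; five concentrations were tested over 48 hours in 96-well plates. GI50 = concentration required for 50% inhibition of growth. TGI marks complete inhibition of growth.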

Experiments:
Assay in all cases: inhibition of tumour cell growth, NCI panel, 48 h
786-0 renal = test system: 786-0 renal
A498 renal = test system: A498 renal
A549 NSCLC = test system: A549 NSCLC
ACHN renal = test system: ACHN renal
BT-549 breast = test system: BT-549 breast
CAKI-1 renal = test system: CAKI-1 renal
CCRF-CEM leukemia = test system: CCRF-CEM leukemia
COLO 205 colon = test system: COLO 205 colon
DU-145 prostate = test system: DU-145 prostate
EKVX NSCLC = test system: EKVX NSCLC
HCC-2998 colon = test system: HCC-2998 colon
HCT-116 colon = test system: HCT-116 colon
HCT-15 colon = test system: HCT-15 colon
HL-60(TB) leukemia = test system: HL-60(TB) leukemia
HOP-62 NSCLC = test system: HOP-62 NSCLC
HOP-92 NSCLC = test system: HOP-92 NSCLC
HS 578T breast = test system: HS 578T breast
HT29 colon = test system: HT29 colon
IGROV1 ovarian = test system: IGROV1 ovarian
K-562 leukemia = test system: K-562 leukemia
KM12 colon = test system: KM12 colon
LOX IMVI melanoma = test system: LOX IMVI melanoma
M14 melanoma = test system: M14 melanoma
MALME-3M melanoma = test system: MALME-3M melanoma
MCF7 breast = test system: MCF7 breast
MDA-MB-231 breast = test system: MDA-MB-231 breast
MDA-MB-435 = test system: MDA-MB-435
MOLT-4 leukemia = test system: MOLT-4 leukemia
NCI-H226 lung = test system: NCI-H226 lung
NCI-H23 lung = test system: NCI-H23 lung
NCI-H460 lung = test system: NCI-H460 lung
NCI-H522 lung = test system: NCI-H522 lung
NCI/ADR-RES ovarian = test system: NCI/ADR-RES ovarian
OVCAR-3 ovarian = test system: OVCAR-3 ovarian
OVCAR-4 ovarian = test system: OVCAR-4 ovarian
OVCAR-5 ovarian = test system: OVCAR-5 ovarian
OVCAR-8 ovarian = test system: OVCAR-8 ovarian
PC-3 prostate = test system: PC-3 prostate
RPMI-8226 leukemia = test system: RPMI-8226 leukemia
RXF 393 renal = test system: RXF 393 renal
SF-268 CNS = test system: SF-268 CNS
SF-295 CNS = test system: SF-295 CNS
SF-539 CNS = test system: SF-539 CNS
SK-MEL-2 melanoma = test system: SK-MEL-2 melanoma
SK-MEL-28 melanoma = test system: SK-MEL-28 melanoma
SK-MEL-5 melanoma = test system: SK-MEL-5 melanoma
SK-OV-3 ovarian = test system: SK-OV-3 ovarian
SN12C renal = test system: SN12C renal
SNB-19 CNS = test system: SNB-19 CNS
SR leukemia = test system: SR leukemia
SW-620 colon = test system: SW-620 colon
T-47D breast = test system: T-47D breast
TK-10 renal = test system: TK-10 renal
U251 CNS = test system: U251 CNS
UACC-257 melanoma = test system: UACC-257 melanoma
UACC-62 melanoma = test system: UACC-62 melanoma
UO-31 renal = test system: UO-31 renal

C#CCOc1cccc(Nc2ncnc3cc(NC(=O)C=C)ccc23)c1
GI50 (786-0 renal): 5.97 µM
TGI (786-0 renal): 48.1 µM
GI50 (A498 renal): 4.25 µM
TGI (A498 renal): 46.6 µM
GI50 (A549 NSCLC): 9.44 µM
TGI (A549 NSCLC): > 100 µM
GI50 (ACHN renal): 4.74 µM
TGI (ACHN renal): > 100 µM
GI50 (BT-549 breast): 5.3 µM
TGI (BT-549 breast): > 100 µM
GI50 (CAKI-1 renal): 6.08 µM
TGI (CAKI-1 renal): > 100 µM
GI50 (CCRF-CEM leukemia): 4.08 µM
TGI (CCRF-CEM leukemia): > 100 µM
GI50 (COLO 205 colon): 5.41 µM
TGI (COLO 205 colon): > 100 µM
GI50 (DU-145 prostate): 3.55 µM
TGI (DU-145 prostate): > 100 µM
GI50 (EKVX NSCLC): 14.8 µM
TGI (EKVX NSCLC): > 100 µM
GI50 (HCC-2998 colon): 11.6 µM
TGI (HCC-2998 colon): 60.4 µM
GI50 (HCT-116 colon): 4.02 µM
TGI (HCT-116 colon): > 100 µM
GI50 (HCT-15 colon): 3.44 µM
TGI (HCT-15 colon): > 100 µM
GI50 (HL-60(TB) leukemia): 3.84 µM
TGI (HL-60(TB) leukemia): 45.7 µM
GI50 (HOP-62 NSCLC): 13.4 µM
TGI (HOP-62 NSCLC): > 100 µM
GI50 (HOP-92 NSCLC): 4.77 µM
TGI (HOP-92 NSCLC): 58.4 µM
GI50 (HS 578T breast): 5.87 µM
TGI (HS 578T breast): 89.8 µM
GI50 (HT29 colon): 3.66 µM
TGI (HT29 colon): > 100 µM
GI50 (IGROV1 ovarian): 10.7 µM
TGI (IGROV1 ovarian): > 100 µM
GI50 (K-562 leukemia): 2790 nM
TGI (K-562 leukemia): > 100 µM
GI50 (KM12 colon): 10.4 µM
TGI (KM12 colon): > 100 µM
GI50 (LOX IMVI melanoma): 3.73 µM
TGI (LOX IMVI melanoma): 17.3 µM
GI50 (M14 melanoma): 6.46 µM
TGI (M14 melanoma): > 100 µM
GI50 (MALME-3M melanoma): 17.6 µM
TGI (MALME-3M melanoma): > 100 µM
GI50 (MCF7 breast): 3.65 µM
TGI (MCF7 breast): > 100 µM
GI50 (MDA-MB-231 breast): 6.47 µM
TGI (MDA-MB-231 breast): > 100 µM
GI50 (MDA-MB-435): 2080 nM
TGI (MDA-MB-435): > 100 µM
GI50 (MOLT-4 leukemia): 4.56 µM
TGI (MOLT-4 leukemia): 69.1 µM
GI50 (NCI-H226 lung): 29.7 µM
TGI (NCI-H226 lung): > 100 µM
GI50 (NCI-H23 lung): 26.6 µM
TGI (NCI-H23 lung): > 100 µM
GI50 (NCI-H460 lung): 10.4 µM
TGI (NCI-H460 lung): > 100 µM
GI50 (NCI-H522 lung): 2800 nM
TGI (NCI-H522 lung): 34.2 µM
GI50 (NCI/ADR-RES ovarian): 9.66 µM
TGI (NCI/ADR-RES ovarian): > 100 µM
GI50 (OVCAR-3 ovarian): 3.7 µM
TGI (OVCAR-3 ovarian): 74.6 µM
GI50 (OVCAR-4 ovarian): 29.6 µM
TGI (OVCAR-4 ovarian): > 100 µM
GI50 (OVCAR-5 ovarian): 14.1 µM
TGI (OVCAR-5 ovarian): > 100 µM
GI50 (OVCAR-8 ovarian): 7.72 µM
TGI (OVCAR-8 ovarian): 57.8 µM
GI50 (PC-3 prostate): 8.36 µM
TGI (PC-3 prostate): > 100 µM
GI50 (RPMI-8226 leukemia): 4.56 µM
TGI (RPMI-8226 leukemia): 38.8 µM
GI50 (RXF 393 renal): 2440 nM
TGI (RXF 393 renal): 13.3 µM
GI50 (SF-268 CNS): 12.6 µM
TGI (SF-268 CNS): > 100 µM
GI50 (SF-295 CNS): 14.6 µM
TGI (SF-295 CNS): > 100 µM
GI50 (SF-539 CNS): 2890 nM
TGI (SF-539 CNS): 14 µM
GI50 (SK-MEL-2 melanoma): 20.9 µM
TGI (SK-MEL-2 melanoma): > 100 µM
GI50 (SK-MEL-28 melanoma): 23 µM
TGI (SK-MEL-28 melanoma): > 100 µM
GI50 (SK-MEL-5 melanoma): 17.3 µM
TGI (SK-MEL-5 melanoma): > 100 µM
GI50 (SK-OV-3 ovarian): 7.88 µM
TGI (SK-OV-3 ovarian): > 100 µM
GI50 (SN12C renal): 7.63 µM
TGI (SN12C renal): > 100 µM
GI50 (SNB-19 CNS): 23.8 µM
TGI (SNB-19 CNS): > 100 µM
GI50 (SR leukemia): 2110 nM
TGI (SR leukemia): > 100 µM
GI50 (SW-620 colon): 3.15 µM
TGI (SW-620 colon): 27.8 µM
GI50 (T-47D breast): 3.98 µM
TGI (T-47D breast): > 100 µM
GI50 (TK-10 renal): 4.05 µM
TGI (TK-10 renal): 35.6 µM
GI50 (U251 CNS): 17.4 µM
TGI (U251 CNS): > 100 µM
GI50 (UACC-257 melanoma): 32.3 µM
TGI (UACC-257 melanoma): > 100 µM
GI50 (UACC-62 melanoma): 9.82 µM
TGI (UACC-62 melanoma): > 100 µM
GI50 (UO-31 renal): 3.51 µM
TGI (UO-31 renal): 75.6 µM
